Laboratory results: patent US4442044A, “Process for preparing monoesters and diesters of N-alkyl substituted amino methyl phosphonic acid” (priority 1983, dated 1984)

Columns and labels:
Assay in all cases: post-emergent herbicidal activity, greenhouse
Format in all cases: in vivo
Lambsquarters = test system: Lambsquarters
Procedure, shortened: (§1)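 Seeds or propagules sown in compacted top soil, grown 2–3 weeks in greenhouse, then sprayed with compound solution/suspension containing ~0.4% emulsifier at tabulated rates. Injury scored visually versus untreated controls at ~2 and 4 weeks after treatment, expressed as a herbicidal activity index.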

Downy Brome = test system: Downy Brome
Procedure, shortened: as §1

Cocklebur = conditions: 4 WAT
Procedure, shortened: as §1

Quackgrass = conditions: Table I, 4 WAT
Procedure, shortened: as §1

Sorghum = conditions: Table II
Procedure, shortened: as §1

Barnyardgrass = test system: Barnyardgrass
Procedure, shortened: as §1

Crabgrass = conditions: Table II
Procedure, shortened: as §1

Smartweed = conditions: 4 WAT
Procedure, shortened: as §1

Panicum Spp = conditions: Table II
Procedure, shortened: as §1

Rice = conditions: Table II
Procedure, shortened: as §1

Yellow Nutsedge = conditions: Table I, 4 WAT
Procedure, shortened: as §1

Wild Buckwheat = conditions: Table II
Procedure, shortened: as §1

Wheat = conditions: Table II
Procedure, shortened: as §1

Johnsongrass = conditions: Table I, 4 WAT
Procedure, shortened: as §1

Hemp Sesbania = conditions: Table II, 1.12 kg/h
Procedure, shortened: as §1

Morningglory = test system: Morningglory
Procedure, shortened: as §1

Sugar Beet = conditions: Table II
Procedure, shortened: as §1

Canada Thistle = conditions: Table I, 4 WAT
Procedure, shortened: as §1

Velvetleaf = test system: Velvetleaf
Procedure, shortened: as §1

Soybean = conditions: Table II
Procedure, shortened: as §1

Measured: post-emergent herbicidal activity index

CCOC(=O)CNCP(=O)(OCC1COC(C)(C)O1)OCC1COC(C)(C)O1 (stereo not shown) [Example 22, glycine, N-[[bis[(2,2-dimethyl-1,3-dioxolan-4-yl)methoxy]phosphinyl]methyl]-, ethyl ester]
1 (25-49% control): Lambsquarters; Table II, 2 WAT, 1.12 kg/h | Sorghum; 4 WAT, 5.6 kg/h | Barnyardgrass; Table II, 2 WAT, 1.12 kg/h | Crabgrass; 2 WAT, 1.12 kg/h | Wheat; 4 WAT, 5.6 kg/h | Johnsongrass; 56.0 kg/h | Morningglory; Table I, 4 WAT, 11.2 kg/h | Morningglory; Table II, 4 WAT, 5.6 kg/h | Velvetleaf; Table II, 4 WAT, 5.6 kg/h
2 (50-74% control): Downy Brome; Table I, 4 WAT, 56.0 kg/h | Cocklebur; Table I, 56.0 kg/h | Barnyardgrass; Table II, 4 WAT, 5.6 kg/h | Crabgrass; 4 WAT, 5.6 kg/h | Yellow Nutsedge; 56.0 kg/h | Wild Buckwheat; 4 WAT, 5.6 kg/h | Hemp Sesbania; 2 WAT | Morningglory; Table I, 4 WAT, 56.0 kg/h | Canada Thistle; 56.0 kg/h | Velvetleaf; Table I, 4 WAT, 56.0 kg/h
3 (75-99% control): Lambsquarters; Table I, 4 WAT, 56.0 kg/h | Quackgrass; 56.0 kg/h | Barnyardgrass; Table I, 4 WAT, 11.2 kg/h | Barnyardgrass; Table I, 4 WAT, 56.0 kg/h | Smartweed; Table I, 56.0 kg/h | Panicum Spp; 4 WAT, 5.6 kg/h
0 (0-24% control): Lambsquarters; Table I, 4 WAT, 11.2 kg/h | Lambsquarters; Table II, 4 WAT, 5.6 kg/h | Downy Brome; Table I, 4 WAT, 11.2 kg/h | Downy Brome; Table II, 2 WAT, 1.12 kg/h | Downy Brome; Table II, 4 WAT, 5.6 kg/h | Cocklebur; Table I, 11.2 kg/h | Cocklebur; Table II, 5.6 kg/h | Quackgrass; 11.2 kg/h | Sorghum; 2 WAT, 1.12 kg/h | Smartweed; Table I, 11.2 kg/h | Panicum Spp; 2 WAT, 1.12 kg/h | Rice; 2 WAT, 1.12 kg/h | Rice; 4 WAT, 5.6 kg/h | Yellow Nutsedge; 11.2 kg/h | Wild Buckwheat; 2 WAT, 1.12 kg/h | Wheat; 2 WAT, 1.12 kg/h | Johnsongrass; 11.2 kg/h | Morningglory; Table II, 2 WAT, 1.12 kg/h | Sugar Beet; 2 WAT, 1.12 kg/h | Sugar Beet; 4 WAT, 5.6 kg/h | Canada Thistle; 11.2 kg/h | Velvetleaf; Table I, 4 WAT, 11.2 kg/h | Velvetleaf; Table II, 2 WAT, 1.12 kg/h | Soybean; 2 WAT, 1.12 kg/h | Soybean; 4 WAT, 5.6 kg/h

CCOC(=O)CNCP(=O)(OCCN1CCCC1)OCCN1CCCC1 [Example 24, glycine, N-[[bis[2-(1-pyrrolidinyl)ethoxy]phosphinyl]methyl]-, ethyl ester]
2 (50-74% control): Downy Brome; Table II, 4 WAT, 5.6 kg/h | Cocklebur; Table I, 11.2 kg/h | Quackgrass; 11.2 kg/h | Sorghum; 4 WAT, 5.6 kg/h | Barnyardgrass; Table I, 4 WAT, 5.6 kg/h | Crabgrass; 4 WAT, 1.12 kg/h | Smartweed; Table I, 5.6 kg/h | Smartweed; Table I, 11.2 kg/h | Smartweed; Table II, 1.12 kg/h | Smartweed; Table II, 5.6 kg/h | Rice; 4 WAT, 5.6 kg/h | Yellow Nutsedge; 5.6 kg/h | Wheat; 4 WAT, 5.6 kg/h | Johnsongrass; 11.2 kg/h | Morningglory; Table I, 4 WAT, 11.2 kg/h | Morningglory; Table II, 4 WAT, 5.6 kg/h | Velvetleaf; Table II, 4 WAT, 5.6 kg/h | Soybean; 4 WAT, 5.6 kg/h
3 (75-99% control): Lambsquarters; Table I, 4 WAT, 5.6 kg/h | Lambsquarters; Table II, 4 WAT, 5.6 kg/h | Cocklebur; Table II, 5.6 kg/h | Barnyardgrass; Table I, 4 WAT, 11.2 kg/h | Barnyardgrass; Table II, 4 WAT, 5.6 kg/h
4 (100% control): Crabgrass; 4 WAT, 5.6 kg/h | Panicum Spp; 4 WAT, 5.6 kg/h
0 (0-24% control): Downy Brome; Table I, 4 WAT, 5.6 kg/h | Downy Brome; Table II, 4 WAT, 1.12 kg/h | Cocklebur; Table II, 1.12 kg/h | Sorghum; 4 WAT, 1.12 kg/h | Rice; 4 WAT, 1.12 kg/h | Wild Buckwheat; 4 WAT, 1.12 kg/h | Wheat; 4 WAT, 1.12 kg/h | Sugar Beet; 4 WAT, 1.12 kg/h | Velvetleaf; Table II, 4 WAT, 1.12 kg/h | Soybean; 4 WAT, 1.12 kg/h
1 (25-49% control): Lambsquarters; Table I, 4 WAT, 11.2 kg/h | Lambsquarters; Table II, 4 WAT, 1.12 kg/h | Downy Brome; Table I, 4 WAT, 11.2 kg/h | Cocklebur; Table I, 5.6 kg/h | Quackgrass; 5.6 kg/h | Barnyardgrass; Table II, 4 WAT, 1.12 kg/h | Panicum Spp; 4 WAT, 1.12 kg/h | Yellow Nutsedge; 11.2 kg/h | Wild Buckwheat; 4 WAT, 5.6 kg/h | Johnsongrass; 5.6 kg/h | Hemp Sesbania; 4 WAT | Morningglory; Table I, 4 WAT, 5.6 kg/h | Morningglory; Table II, 4 WAT, 1.12 kg/h | Sugar Beet; 4 WAT, 5.6 kg/h | Canada Thistle; 5.6 kg/h | Canada Thistle; 11.2 kg/h | Velvetleaf; Table I, 4 WAT, 5.6 kg/h | Velvetleaf; Table I, 4 WAT, 11.2 kg/h
